Laboratory results published in paper PMC10408569, “Recruitment of hexahydroquinoline as anticancer scaffold targeting inhibition of wild and mutants EGFR (EGFR^WT, EGFR^T790M, and EGFR^L858R)” (Journal of Enzyme Inhibition and Medicinal Chemistry, 2023).

What was measured:
HCT-15 = test: NCI-60 anticancer screening (SRB); format: cell-based; details: Homo sapiens; HCT-15, colon cancer; one dose 10 μM; read-out: Growth Inhibition Percentage (GI %)
OVCAR-8 = test: NCI-60 anticancer screening (SRB); format: cell-based; details: Homo sapiens; OVCAR-8, ovarian cancer; one dose 10 μM; read-out: Growth Inhibition Percentage (GI %)
DU-145 = test: NCI-60 anticancer screening (SRB); format: cell-based; details: Homo sapiens; DU-145, prostate cancer; one dose 10 μM; read-out: Growth Inhibition Percentage (GI %)
A549/ATCC = test: NCI-60 anticancer screening (SRB); format: cell-based; details: Homo sapiens; A549/ATCC, NSC lung cancer; one dose 10 μM; read-out: Growth Inhibition Percentage (GI %)
UO-31 = test: NCI-60 anticancer screening (SRB); format: cell-based; details: Homo sapiens; UO-31, renal cancer; one dose 10 μM; read-out: Growth Inhibition Percentage (GI %)
CAKI-1 = test: NCI-60 anticancer screening (SRB); format: cell-based; details: Homo sapiens; CAKI-1, renal cancer; one dose 10 μM; read-out: Growth Inhibition Percentage (GI %)
MOLT-4 = test: NCI-60 anticancer screening (SRB); format: cell-based; details: Homo sapiens; MOLT-4, leukemia; one dose 10 μM; read-out: Growth Inhibition Percentage (GI %)
NCI-H226 = test: NCI-60 anticancer screening (SRB); format: cell-based; details: Homo sapiens; NCI-H226, NSC lung cancer; one dose 10 μM; read-out: Growth Inhibition Percentage (GI %)
MDA-MB-435 = test: NCI-60 anticancer screening (SRB); format: cell-based; details: Homo sapiens; MDA-MB-435, melanoma; one dose 10 μM; read-out: Growth Inhibition Percentage (GI %)
HCC-2998 = test: NCI-60 anticancer screening (SRB); format: cell-based; details: Homo sapiens; HCC-2998, colon cancer; one dose 10 μM; read-out: Growth Inhibition Percentage (GI %)
MDA-MB-468 = test: NCI-60 anticancer screening (SRB); format: cell-based; details: Homo sapiens; MDA-MB-468, breast cancer; one dose 10 μM; read-out: Growth Inhibition Percentage (GI %)
COLO 205 = test: NCI-60 anticancer screening (SRB); format: cell-based; details: Homo sapiens; COLO 205, colon cancer; one dose 10 μM; read-out: Growth Inhibition Percentage (GI %)
SNB-19 = test: NCI-60 anticancer screening (SRB); format: cell-based; details: Homo sapiens; SNB-19, CNS cancer; one dose 10 μM; read-out: Growth Inhibition Percentage (GI %)
MALME-3M = test: NCI-60 anticancer screening (SRB); format: cell-based; details: Homo sapiens, melanoma, one dose 10 μM, read-out: Growth Inhibition Percentage (GI %)
U251 = test: NCI-60 anticancer screening (SRB); format: cell-based; details: Homo sapiens, U-251; U251, CNS cancer; one dose 10 μM; read-out: Growth Inhibition Percentage (GI %)
NCI-H522 = test: NCI-60 anticancer screening (SRB); format: cell-based; details: Homo sapiens; NCI-H522, NSC lung cancer; one dose 10 μM; read-out: Growth Inhibition Percentage (GI %)
SNB-75 = test: NCI-60 anticancer screening (SRB); format: cell-based; details: Homo sapiens; SNB-75, CNS cancer; one dose 10 μM; read-out: Growth Inhibition Percentage (GI %)
NCI-H322M = test: NCI-60 anticancer screening (SRB); format: cell-based; details: Homo sapiens, NSC lung cancer, one dose 10 μM, read-out: Growth Inhibition Percentage (GI %)
OVCAR-3 = test: NCI-60 anticancer screening (SRB); format: cell-based; details: Homo sapiens; OVCAR-3, ovarian cancer; one dose 10 μM; read-out: Growth Inhibition Percentage (GI %)
NCI 60 cancer cell lines = test: NCI-60 anticancer screening (SRB), whole panel; format: cell-based, human; details: mean across the NCI-60 panel; one dose 10 μM
EKVX = test: NCI-60 anticancer screening (SRB); format: cell-based; details: Homo sapiens, NSC lung cancer, one dose 10 μM, read-out: Growth Inhibition Percentage (GI %)
NCI/ADR-RES = test: NCI-60 anticancer screening (SRB); format: cell-based; details: Homo sapiens, ovarian cancer, one dose 10 μM, read-out: Growth Inhibition Percentage (GI %)
BT-549 = test: NCI-60 anticancer screening (SRB); format: cell-based; details: Homo sapiens; BT-549, breast cancer; one dose 10 μM; read-out: Growth Inhibition Percentage (GI %)
IGROV1 = test: NCI-60 anticancer screening (SRB); format: cell-based; details: Homo sapiens, IGROV-1; IGROV1, ovarian cancer; one dose 10 μM; read-out: Growth Inhibition Percentage (GI %)
SK-MEL-2 = test: NCI-60 anticancer screening (SRB); format: cell-based; details: Homo sapiens; SK-MEL-2, melanoma; one dose 10 μM; read-out: Growth Inhibition Percentage (GI %)
HOP-62 = test: NCI-60 anticancer screening (SRB); format: cell-based; details: Homo sapiens; HOP-62, NSC lung cancer; one dose 10 μM; read-out: Growth Inhibition Percentage (GI %)
KM 12 = test: NCI-60 anticancer screening (SRB); format: cell-based; details: Homo sapiens, KM12; KM 12, colon cancer; one dose 10 μM; read-out: Growth Inhibition Percentage (GI %)
786-0 = test: NCI-60 anticancer screening (SRB); format: cell-based; details: Homo sapiens; 786-0, renal cancer; one dose 10 μM; read-out: Growth Inhibition Percentage (GI %)
HL-60(TB) = test: NCI-60 anticancer screening (SRB); format: cell-based; details: Homo sapiens, leukemia, one dose 10 μM, read-out: Growth Inhibition Percentage (GI %)
MDA-MB-231 = test: NCI-60 anticancer screening (SRB); format: cell-based; details: Homo sapiens; MDA-MB-231, breast cancer; one dose 10 μM; read-out: Growth Inhibition Percentage (GI %)
OVCAR-5 = test: NCI-60 anticancer screening (SRB); format: cell-based; details: Homo sapiens; OVCAR-5, ovarian cancer; one dose 10 μM; read-out: Growth Inhibition Percentage (GI %)
UACC-257 = test: NCI-60 anticancer screening (SRB); format: cell-based; details: Homo sapiens; UACC-257, melanoma; one dose 10 μM; read-out: Growth Inhibition Percentage (GI %)

Structure (SMILES)	inhibition at 10 µM (HCT-15) [%]	inhibition at 10 µM (OVCAR-8) [%]	inhibition at 10 µM (DU-145) [%]	inhibition at 10 µM (A549/ATCC) [%]	inhibition at 10 µM (UO-31) [%]	inhibition at 10 µM (CAKI-1) [%]	inhibition at 10 µM (MOLT-4) [%]	inhibition at 10 µM (NCI-H226) [%]	inhibition at 10 µM (MDA-MB-435) [%]	inhibition at 10 µM (HCC-2998) [%]	inhibition at 10 µM (MDA-MB-468) [%]	inhibition at 10 µM (COLO 205) [%]	inhibition at 10 µM (SNB-19) [%]	inhibition at 10 µM (MALME-3M) [%]	inhibition at 10 µM (U251) [%]	inhibition at 10 µM (NCI-H522) [%]	inhibition at 10 µM (SNB-75) [%]	inhibition at 10 µM (NCI-H322M) [%]	inhibition at 10 µM (OVCAR-3) [%]	GI % mean (NCI 60 cancer cell lines)	other results
CCOC(=O)C1=C(N)N(c2ccccc2)C2=C(C(=O)CC(C)(C)C2)C1c1ccccn1 (racemic) [12a, (±)-Ethyl 2-amino-7,7-dimethyl-5-oxo-1-phenyl-4-(pyridin-2-yl)-1,4,5,6,7,8-hexahydroquinoline-3-carboxylate]	< 10	< 10	< 10	< 10	< 10	< 10	< 10	< 10	< 10	< 10	< 10	< 10	< 10	< 10	< 10	11	19	< 10	< 10	- ((-) = GI % mean less than 10)	inhibition at 10 µM (EKVX): < 10%; inhibition at 10 µM (NCI/ADR-RES): < 10%; inhibition at 10 µM (BT-549): < 10%; inhibition at 10 µM (IGROV1): < 10%; inhibition at 10 µM (SK-MEL-2): < 10%; inhibition at 10 µM (HOP-62): < 10%; inhibition at 10 µM (KM 12): < 10%; inhibition at 10 µM (786-0): < 10%; inhibition at 10 µM (HL-60(TB)): < 10%; melting point: 158 to 160 °C; inhibition at 10 µM (MDA-MB-231): < 10%; inhibition at 10 µM (OVCAR-5): < 10%; inhibition at 10 µM (UACC-257): < 10%
CCOC(=O)C1=C(N)N(c2ccc(C)cc2)C2=C(C(=O)CC(C)(C)C2)C1c1ccccn1 (racemic) [12b, (±)-Ethyl 2-amino-7,7-dimethyl-1–(4-methylphenyl)-5-oxo-1-phenyl-4-(pyrdin-2-yl)-1,4,5,6,7,8-hexahydroquinoline-3-carboxylate]	< 10	< 10	< 10	< 10	23	16	< 10	< 10	< 10	< 10	82	< 10	< 10	< 10	< 10	< 10	19	< 10	< 10	- ((-) = GI % mean less than 10)	inhibition at 10 µM (EKVX): 19%; inhibition at 10 µM (NCI/ADR-RES): < 10%; inhibition at 10 µM (BT-549): 30%; inhibition at 10 µM (IGROV1): < 10%; inhibition at 10 µM (SK-MEL-2): < 10%; inhibition at 10 µM (HOP-62): < 10%; inhibition at 10 µM (KM 12): < 10%; inhibition at 10 µM (786-0): < 10%; inhibition at 10 µM (HL-60(TB)): < 10%; melting point: 196 to 198 °C; inhibition at 10 µM (MDA-MB-231): 13%; inhibition at 10 µM (OVCAR-5): < 10%; inhibition at 10 µM (UACC-257): < 10%
CCOC(=O)C1=C(N)N(c2ccc(Cl)cc2)C2=C(C(=O)CC(C)(C)C2)C1c1ccccn1 (racemic) [12c, (±)-Ethyl 2-amino-1–(4-chlorophenyl)-7,7-dimethyl-5-oxo-4-(pyridine-2-yl)-1,4,5,6,7,8-hexahydroquinoline-3-carboxylate]	12	< 10	< 10	< 10	23	11	< 10	< 10	< 10	< 10	< 10	< 10	< 10	< 10	< 10	11	< 10	< 10	< 10	- ((-) = GI % mean less than 10)	inhibition at 10 µM (EKVX): < 10%; inhibition at 10 µM (NCI/ADR-RES): < 10%; inhibition at 10 µM (BT-549): < 10%; inhibition at 10 µM (IGROV1): < 10%; inhibition at 10 µM (SK-MEL-2): < 10%; inhibition at 10 µM (HOP-62): < 10%; inhibition at 10 µM (KM 12): < 10%; inhibition at 10 µM (786-0): < 10%; inhibition at 10 µM (HL-60(TB)): < 10%; melting point: 256 to 258 °C; inhibition at 10 µM (MDA-MB-231): < 10%; inhibition at 10 µM (OVCAR-5): < 10%; inhibition at 10 µM (UACC-257): < 10%
CCOC(=O)C1=C(N)N(c2ccccc2)C2=C(C(=O)CC(C)(C)C2)C1c1cccnc1 (racemic) [12d]	< 10	< 10	< 10	< 10	77	< 10	< 10	< 10	< 10	< 10	< 10	< 10	< 10	< 10	< 10	15	17	< 10	< 10	- ((-) = GI % mean less than 10)	inhibition at 10 µM (EKVX): < 10%; inhibition at 10 µM (NCI/ADR-RES): 13%; inhibition at 10 µM (BT-549): < 10%; inhibition at 10 µM (IGROV1): < 10%; inhibition at 10 µM (SK-MEL-2): < 10%; inhibition at 10 µM (HOP-62): < 10%; inhibition at 10 µM (KM 12): < 10%; inhibition at 10 µM (786-0): < 10%; inhibition at 10 µM (HL-60(TB)): < 10%; melting point: 215 to 217 °C; inhibition at 10 µM (MDA-MB-231): < 10%; inhibition at 10 µM (OVCAR-5): < 10%; inhibition at 10 µM (UACC-257): < 10%
